# In patent publication US20190352638A1, “THERAPEUTIC MODULATION OF C-FOS IN THE EYE” (Children's Medical Center Corporation, priority 2016, published 2019):
# Experiments:
# AP-1 = settings: without activating transcription of retinoic acid response element; Fanjul et al. 1994; cited from earlier work
# [1] = tested on: c-fos and its target genes (Mmp10, Il6, IlIb and Tnf); test: Quantitative RT-PCR of retinal mRNA; type: in vivo, mouse; settings: oral gavage 1 mg/kg daily P5 to P15; Vldlr^−/− retinas
# Description: (§1) All animal studies were performed according to protocols approved by the Institutional Animal Care and Use Committee at the Boston Children's Hospital. Vldlr^+/− (heterozygous) mice from Jackson Laboratory (Stock #002529) were bred to generate homozygous and wild type littermates. SR11302 (TOCRIS, Cat. 2476) was dissolved in corn oil. Vldlr^−/− pups were orally gavaged with SR11302 or corn oil as control at a dose of 1 mg/kg body weight daily from P5 to P15. P16 retinas were collected for PCR and neovascularization analysis.
# Total RNA was extracted from mouse retinas using RNeasy kit (Qiagen) and reverse-transcribed with SuperScript® III Reverse Transcriptase (Thermo Fisher) to generate cDNA. Quantitative PCR was performed using a 7300 system (Applied Biosystems) with KAPA SYBR FAST qPCR Kits (Kapa Biosystems) using Rhodopsin, Pecam, Vldlr, CD68, CD11b, CD45, c-Fos, Il6, Il11b, Tnf, mmp10, Socs3, uPA, c-Jun, VEGF120, VEGF164, VEGF188 primers.
# Subretinal injection into P0 neonate eyes was performed as previously described (Matsuda, T., et al., Proc. Nat. Acad. Sci. USA 101, 16-22 (2004), and Wang, S., et al., Developmental cell 30, 513-527 (2014)) under a dissection microscope. P0 Vldlr^−/− or wild type pups were anesthetized on ice for several minutes. The eyelid was prepped with Betadine, followed by water, then 70% ethanol using cotton swabs. […]
# Vldlr^−/− mice = test: Neovascularization analysis (lesion number and size) in Vldlr^−/− retina whole mounts; type: in vivo, mouse
# Description: as §1
# Vldlr^−/− and wild type retina whole mounts were stained with isolectin IB4 and imaged with AxioObserver Z1 microscope (Zeiss) with a monochrome digital camera (AxioCam MRm; Zeiss) focusing on the terminal end of lesions on the RPE layer (usually at P16), and individual images were merged to create one retinal image using the automated merge function (mosaiX; Zeiss) in the software (AxioVision 4.6.3.0; Zeiss). Image J was used for quantification of subretinal neovascularization lesion number and areas in Vldlr^−/− retinas (National Institutes of Health, imagej.nih.gov/ij/) with designed plugins adapted from the method used to measure retinal neovascularization (SWIFT_NV) in the OIR model (Stahl, A. et al., Angiogenesis 12, 297-301 (2009)) which use a user-designated threshold to mark lesion structures that clearly stand out from background fluorescence of normal vessels, and can automatically remove small artifacts by selecting objects with a minimum size of 100 pixels. Other larger artifacts such as occasional cellular debris or retinal periphery with hyperfluorescence can be manually excluded from quantification. Lesion numbers and areas were quantified with researchers masked to the identity of samples.
# At P16, mice were anesthetized, the eyes were enucleated and fixed in 4% paraformaldehyde followed by dissection and staining of the retinas with fluoresceinated isolectin IB4 (Invitrogen) to visualize subretinal neovascularization in whole mounted retinas. 3D reconstructed images were taken with confocal microscopy (Leica TCS SP2 AOBS) and z-stacks were 3D reconstructed using Volocity software (Perkin Elmer).
# Subretinal injection into P0 neonate eyes was performed as previously described (Matsuda, T., et al., Proc. Nat. Acad. Sci. USA 101, 16-22 (2004), and Wang, S., et al., Developmental cell 30, 513-527 (2014)) under a dissection microscope. P0 Vldlr^−/− or wild type pups were anesthetized on ice for several minutes. The eyelid was prepped with Betadine, followed by water, then 70% ethanol using cotton swabs. A blade was used to gently cut open the eyelid. The injection needle was inserted into the eyeball through the incision until slight resistance was felt. Approximately 0.5 μl solution containing siRNA/siControl or AAV2/Control (10^12-10^13 gc/ml) was introduced into the subretinal space using a pulled angled glass pipette controlled by a FemtoJet (Eppendorf). The left eyes were uninjected for within-animal controls. Curved forceps were used to slowly close the eyelid. Mice were placed on a circulating water blanket for warmth. The retinas were collected at P12 for PCR assay and P16 for whole mount analysis.
# [2] = oral gavage 1 mg/kg daily P5 to P15, Vldlr^−/− mice
# [3] = oral gavage, Vldlr^−/− retinas vs controls
structure (smiles),measurement,setting,value
"CC1=C(/C=C/C(=C/C=C/C(C)=C/C(=O)O)c2ccc(C)cc2)C(C)(C)CCC1 [SR11302, (E,E,Z,E)-3-Methyl-7-(4-methylphenyl)-9-(2,6,6-trimethyl-1-cyclohexen-1-yl)-2,4,6,8-nonatetraenoic acid]",AP-1 activity,AP-1,specifically inhibits
same,"c-FOS target genes (Il6, IlIb and Tnf) mRNA",[1],reduced
same,c-fos expression itself,[1],without influencing
same,lesion size decreased,Vldlr^−/− mice; [2],40%
same,total lesion number reduced,Vldlr^−/− mice; [2],48%
same,neovascularization (in words),Vldlr^−/− mice; [3],inhibited
same,total lesion number (in words),Vldlr^−/− mice; [3],reduced
same,total lesion size (in words),Vldlr^−/− mice; [3],reduced
